Numbers after ± are expanded uncertainties.
Assays:
[1] = 101 kPa, Liquid
[2] = xn = mol fraction of the nth substance listed; settings: 101 kPa, Liquid, x1 = 1

Structure (SMILES)	kinematic viscosity ([1]; 298.15 K)	mass density ([1]; 298.15 K)	kinematic viscosity ([1]; 303.15 K)	mass density ([1]; 303.15 K)	kinematic viscosity ([1]; 308.15 K)	mass density ([1]; 308.15 K)	kinematic viscosity ([1]; 313.15 K)	mass density ([1]; 313.15 K)	kinematic viscosity ([1]; 318.15 K)	mass density ([1]; 318.15 K)	kinematic viscosity ([2]; 298.15 K)	mass density ([2]; 298.15 K)	kinematic viscosity ([2]; 303.15 K)	mass density ([2]; 303.15 K)	kinematic viscosity ([2]; 308.15 K)	mass density ([2]; 308.15 K)	kinematic viscosity ([2]; 313.15 K)	mass density ([2]; 313.15 K)	kinematic viscosity ([2]; 318.15 K)	mass density ([2]; 318.15 K)
OCCOCCO [diethylene glycol]	2.76e-05 ± 1.2e-06 m2/s	1113 ± 2.9 kg/m3	2.13e-05 ± 9e-07 m2/s	1109.2 ± 3 kg/m3	1.68e-05 ± 7e-07 m2/s	1106.1 ± 3.1 kg/m3	1.45e-05 ± 6e-07 m2/s	1103 ± 3.2 kg/m3	1.12e-05 ± 5e-07 m2/s	1099.3 ± 3.3 kg/m3										
CN(C)C=O [dimethylformamide]	8.15e-07 ± 5.2e-08 m2/s	943.9 ± 2.4 kg/m3	7.6e-07 ± 4.9e-08 m2/s	939.6 ± 2.5 kg/m3	7.22e-07 ± 4.7e-08 m2/s	934.2 ± 2.6 kg/m3	6.75e-07 ± 4.4e-08 m2/s	929.9 ± 2.7 kg/m3	6.38e-07 ± 4.2e-08 m2/s	924.7 ± 2.8 kg/m3										
CN(C)C=O [dimethylformamide] + OCCOCCO											8.15e-07 ± 5.2e-08 m2/s	943.9 ± 2.4 kg/m3	7.6e-07 ± 4.9e-08 m2/s	939.6 ± 2.5 kg/m3	7.22e-07 ± 4.7e-08 m2/s	934.2 ± 2.6 kg/m3	6.75e-07 ± 4.4e-08 m2/s	929.9 ± 2.7 kg/m3	6.38e-07 ± 4.2e-08 m2/s	924.7 ± 2.8 kg/m3
